Laboratory results as given in patent publication US20220287995A1, “COMPOSITIONS AND METHODS FOR INHIBITING BACTERIAL VIRULENCE AND FLIM-BASED DEVICE AND METHOD FOR ANTIBIOTIC SUSCEPTIBILITY TESTING” (THE REGENTS OF THE UNIVERSITY OF CALIFORNIA, priority 2019, published 2022).
Entries after “also recorded” stand apart in the source; their conditions may differ.

Key:
P. aeruginosa [1] = assay: Colorimetric enzyme-cycling assay of NADH and NAD+ concentrations; assay type: cell-based, Pseudomonas aeruginosa; settings: for NADH/NAD+ ratio / total concentrations of NADH and NAD+ / change in NADH/NAD+ ratio / change in total NAD(H) production: surface-attached; for NADH/NAD+ ratio / total concentrations of NADH and NAD+: mid-exponential phase; for change in NADH/NAD+ ratio / change in total NAD(H) production: rich (PS:DB) medium, carbon source 0.2% added at 3 hours, harvested after 1 additional hour
Method: The concentrations of reduced and oxidized nicotinamide adenine dinucleotide (NADH, NAD^+) were measured using a colorimetric enzyme-cycling assay as described previously (45). P. aeruginosa strains were cultured overnight in PS:DB, diluted 1:100 into 60×15 mm plastic petri dishes (Corning, Corning, N.Y.) containing the same medium, and grown for 4 to 6 hours. Alternatively, strains were cultured overnight in minimal medium, diluted 1:100 into plastic petri dishes containing modified minimal medium with single carbon sources, and grown to an OD600 of 0.2. Cultures were harvested in a glove box chamber (Bel-Art, Wayne, N.J.) that had been vacuumed to remove air and flushed with nitrogen constantly throughout the experiment to prevent oxidation of NADH. Subsequent steps were performed and solutions were prepared in the glove box unless otherwise indicated. Solutions containing 0.05 to 1 μM of NADH (Sigma) or NAD^+ (Sigma) were included as calibration controls.
Planktonic cells were isolated from petri dishes, pelleted by centrifugation at 16,000×g for 1 min, the residual supernatant was discarded and the pellet was immediately resuspended in 0.2 M NaOH or HCl to extract NADH or NAD^+, respectively, as described previously (45, 46). Surface-attached cells were harvested by aspirating planktonic cells from petri dishes, washing with DB buffer or modified minimal medium with no carbon source for strains cultured in PS:DB or modified minimal medium A containing single carbon sources, respectively, adding 0.2 M NaOH or HCl, and scraping surfaces with a cell scraper (Sarstedt, Nümbrecht, Germany). As a control, the Δphz12 strain was cultured overnight in modified MOPS synthetic medium (46), diluted 1:100 in the same medium in culture tubes for 1 to 4 hours, pelleted by centrifugation, resuspended in 0.2 M NaOH or HCl, as described previously (46). The resuspensions in NaOH or HCl were neutralized using equal volume of 0.1 M HCl or NaOH, respectively, and portions were assayed for protein content, NADH, and NAD^+. Resuspensions were assayed for protein content using a BCA assay kit (ThermoFisher Scientific, Waltham, Mass.) using a 50:1 mixture of solutions A and B from the kit. Solutions were incubated at 37° C. for 30 min and measured for absorbance at 562 nm. Resuspensions that were not used for the BCA assay were normalized by protein content by diluting in Millipore-filtered water.
NADH and NAD^+ concentrations were determined by following the protocol described previously (45). Briefly, normalized resuspensions were centrifuged at 16,000×g for 10 minutes at 4° C. to remove cell debris and mixed with a reaction mixture containing 40 mM EDTA, 1 M bicine (Sigma), 4.2 mM 3-(4,5-dimethylthiazol-2-yl)-2,5-diphenyltetrazolium bromide (Sigma), 16.6 mM phenazine ethosulfate (Sigma), 1 mg/mL alcohol dehydrogenase (Sigma), and ethanol, and the absorbance at 570 nm of the solution was measured in a 96-well plate (Corning Corning, N.Y.) at 30° C. every 30 seconds for 30 minutes using a BioTek Synergy HTX reader (BioTek, Winooski, Vt.). The reaction mixture and the normalized resuspensions were aliquoted and mixed inside the glove box. The centrifugation and absorbance measurements were performed outside of the glove box. The absorbance per unit time was determined by fitting data on the initial velocity of enzyme activity, acquired between 2 to 10 minutes of the absorbance measurements. The absorbances per unit time for the NADH and NAD^+ calibration controls were linearly fit for the full range of calibration concentrations to establish a linear equation that relates the absorbance per unit time and NAD(H) concentration. The NAD(H) concentrations of the planktonic and surface-attached cell resuspensions were determined by inputting the respective absorbance per unit time fits of the samples into these equations. […]

P. aeruginosa [2] = assay: Surface density measurement of P. aeruginosa from virulence assays; assay type: cell-based, Pseudomonas aeruginosa; settings: virulence assays after 6 hours of growth, carbon source 0.2%
Method: The density of P. aeruginosa cells on surface was measured as described previously (1) using amoebae cell viability phase contrast images that were acquired using a 10× or 20× objective. The IJ_Isodata algorithm (ImageJ 1.52q) was applied to phase contrast images to construct cell boundary masks. The cell density was computed by dividing the area covered by P. aeruginosa by the total area of the image.

[3] = planktonic cells, modified minimal medium, single carbon source at 0.2%
[4] = modified minimal medium, single carbon source at 0.2%

Row | Structure (SMILES) | NAD(H) concentration relative to glycerol (P. aeruginosa [1]; [3]) | NADH/NAD+ ratio relative to glycerol (P. aeruginosa [1]; [3]) | NADH/NAD+ ratio (P. aeruginosa [1]; [4]) | total concentrations of NADH and NAD+ (P. aeruginosa [1]; [4]) | change in NADH/NAD+ ratio (P. aeruginosa [1]) | change in total NAD(H) production (P. aeruginosa [1]) | surface density of P. aeruginosa (P. aeruginosa [2])
1 | O=C(O)CC(O)(CC(=O)O)C(=O)O [citrate] | slightly lower | slightly greater | increasing ratios | intermediate | greatest increases | greatest decreases; also recorded: decreased | did not decrease the surface density
2 | OCC(O)CO [glycerol] |  |  | increasing ratios | intermediate | smallest changes | relatively small impacts | 
